Assay results from US11584765B2 (priority 2017, dated 2023).

system: C57BL/6 mice; test: animal or person; type: in vivo; conditions: Mus musculus, sc, 0.5 h, s.c. administration, 30 min, 55° C. water, read-out: ED50 (mg/kg) at 30 min on C57BL/6 mice in Warm-water Tail-flick Test

First: c1ccc(CCC2(C3CCCO3)CCN(Cc3ccnn3-c3ccccc3)C2)cc1 (stereo not drawn) [Compound 228, 5-((3-phenethyl-3-(tetrahydrofuran-2-yl)pyrrolidin-1-yl)methyl)-1-phenyl-1H-pyrazole]
Second: CC(=O)Nc1ccc(CN2CC[C@@](CCc3ccccc3)([C@@H]3C=CCO3)C2)cc1 (single isomer, unassigned) [Compound 258]
The ED50 of the first is higher: greater than 10 mg/kg for the first, less than 10 mg/kg for the second.

`CCOCC1(CCc2cc(C)sc2C)CCN(Cc2cnn(C)c2)CC1` [Compound 281, 4-(2-(2,5-dimethylthiophen-3-yl)ethyl)-4-(ethoxymethyl)-1-((1-methyl-1H-pyrazol-4-yl)methyl)piperidine] and `CCOCC1(CCc2cccs2)CCN(Cc2cnn(Cc3ccccc3)c2)CC1` [Compound 271, 1-((1-benzyl-1H-pyrazol-4-yl)methyl)-4-(ethoxymethyl)-4-(2-(thiophen-2-yl)ethyl)piperidine] cannot be ordered by ED50: greater than 10 mg/kg for the first, greater than 10 mg/kg for the second.

`CC(=O)NCCN1CCC(CCc2ccccc2)(c2ccccn2)CC1` [Compound 36, N-(2-(4-phenethyl-4-(pyridin-2-yl)piperidin-1-yl)ethyl)acetamide] and `CC(=O)Nc1ccc(CN2CCC(CCc3ccccc3)(c3nnco3)CC2)cc1` [Compound 9] cannot be ordered by ED50: greater than 10 mg/kg for the first, greater than 10 mg/kg for the second.

First: CCOCC1(CCC2CCCS2)CCCN1Cc1cccnc1.Cl (stereo not drawn) [Compound 455, 3-((2-(ethoxymethyl)-2-(2-(tetrahydrothiophen-2-yl)ethyl)pyrrolidin-1-yl)methyl)pyridine HCl]
Second: CCOC[C@@]1(CCc2ccccn2)CCN(Cc2cccnc2)C1 [Compound 420]
The ED50 of the first is higher: greater than 10 mg/kg for the first, less than 10 mg/kg for the second.

Compared with `CCOC[C@@]1(CCc2ccccc2F)CCN(Cc2cccnc2)C1` [Compound 440], `CCOCC1(CCc2ccccc2)CCN(Cc2ccc(Nc3ncccn3)cc2)C1` (stereo not drawn) [Compound 207, N-(4-((3-(ethoxymethyl)-3-phenethylpyrrolidin-1-yl)methyl)phenyl)pyri-midin-2-amine] is higher in ED50: less than 10 mg/kg for the first, greater than 10 mg/kg for the second.

`CC(=O)Nc1ccc(CN2CCC(CCc3ccccc3)(C3CO3)CC2)cc1` (stereo not drawn) [Compound 94, N-(4-((4-(oxiran-2-yl)-4-phenethylpiperidin-1-yl)methyl)phenyl)acetamide] and `CCOCC1(CCc2ccccc2)CCN(Cc2ccc(C(N)=O)cc2)CC1` [Compound 89, 4-((4-(ethoxymethyl)-4-phenethylpiperidin-1-yl)methyl)benzamide] cannot be ordered by ED50: greater than 10 mg/kg for the first, greater than 10 mg/kg for the second.

`CCOCC1(CCc2ccccc2)CCN(Cc2ccc(C(=O)OC)cc2)CC1` [Compound 144, methyl 4-((4-(ethoxymethyl)-4-phenethylpiperidin-1-yl)methyl)benzoate] and `CCOCC1(CCc2ccccc2)CCN(Cc2ccc(NCC(F)(F)F)cc2)CC1` [Compound 88, 4-((4-(ethoxymethyl)-4-phenethylpiperidin-1-yl)methyl)-N-(2,2,2-trifluoroethyl)aniline] cannot be ordered by ED50: greater than 10 mg/kg for the first, greater than 10 mg/kg for the second.

`CCOCC1(CCc2cnccn2)CCN(C(C)c2ccc(C)nc2)C1.Cl` (stereo not drawn) [Compound 357, 2-(2-(3-(ethoxymethyl)-1-(1-(6-methylpyridin-3-yl)ethyl)pyrrolidin-3-yl)ethyl)pyrazine HCl] and `CCOC[C@@]1(CCc2ccsc2)CCN(C(C)(C)c2ccc(C)nc2)C1` [Compound 356, (S)-5-(2-(3-(ethoxymethyl)-3-(2-(thiophen-3-yl)ethyl)pyrrolidin-1-yl)propan-2-yl)-2-methylpyridine] cannot be ordered by ED50: less than 10 mg/kg for the first, less than 10 mg/kg for the second.

First: CCOCC1(CCc2ccc3ccccc3c2)CCN(Cc2ccc(NC(C)=O)cc2)CC1 [Compound 148, N-(4-((4-(ethoxymethyl)-4-(2-(naphthalen-2-yl)ethyl)piperidin-1-yl)methyl)phenyl)acetamide]
Second: CCOCC1(CCc2cccs2)CCN(Cc2ccc(NC(C)=O)cc2)C1 (stereo in doubt) [Compound 325, (R)-N-(4-((3-(ethoxymethyl)-3-(2-(thiophen-2-yl)ethyl)pyrrolidin-1-yl)methyl)phenyl)acetamide]
The ED50 of the first is higher: greater than 10 mg/kg for the first, less than 10 mg/kg for the second.
